Measurements published in BigSolDB 2.1.

C1OCOCO1
solubility (mole fraction)
Details	in dimethoxymethane	in ethanol	in isopropanol	in methanol
288.15 K	0.32	0.136	0.17	0.167
293.15 K	0.371	0.175	0.213	0.21
297.15 K	0.416	–	–	–
298.15 K	–	0.228	0.268	0.26
300.15 K	0.452	–	–	–
303.15 K	0.489	0.29	0.331	0.318
306.15 K	0.527	–	–	–
308.15 K	–	0.362	0.417	0.398
309.15 K	0.567	–	–	–
312.15 K	0.608	–	–	–
313.15 K	–	0.457	0.511	0.517
318.15 K	–	0.591	0.643	0.645
321.15 K	–	–	–	0.8
323.15 K	–	0.74	0.793	–
328.15 K	–	0.913	0.945	–
